How the values were obtained:
Assay in all cases: Kinase profiling screen (radioactive filter-binding assay)
Format in all cases: biochemical
[1] = molecular target: ABL (Homo sapiens, UniProt P00519); conditions: 100 μM compound, 5 μM ATP; read-out: Kinase activity, % of activity in the absence of inhibitor
Summary of the method: (§1)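 Panel of 117 recombinant kinases; CoA, dpCoA, ADP each at 100 μM final, duplicates; model substrates, ATP at optimal level.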

[2] = molecular target: HIPK3 (Homo sapiens, UniProt Q9H422); conditions: 100 μM compound, 20 μM ATP; read-out: Kinase activity, % of activity in the absence of inhibitor
Chain of HIPK3 (Q9H422 whole entry): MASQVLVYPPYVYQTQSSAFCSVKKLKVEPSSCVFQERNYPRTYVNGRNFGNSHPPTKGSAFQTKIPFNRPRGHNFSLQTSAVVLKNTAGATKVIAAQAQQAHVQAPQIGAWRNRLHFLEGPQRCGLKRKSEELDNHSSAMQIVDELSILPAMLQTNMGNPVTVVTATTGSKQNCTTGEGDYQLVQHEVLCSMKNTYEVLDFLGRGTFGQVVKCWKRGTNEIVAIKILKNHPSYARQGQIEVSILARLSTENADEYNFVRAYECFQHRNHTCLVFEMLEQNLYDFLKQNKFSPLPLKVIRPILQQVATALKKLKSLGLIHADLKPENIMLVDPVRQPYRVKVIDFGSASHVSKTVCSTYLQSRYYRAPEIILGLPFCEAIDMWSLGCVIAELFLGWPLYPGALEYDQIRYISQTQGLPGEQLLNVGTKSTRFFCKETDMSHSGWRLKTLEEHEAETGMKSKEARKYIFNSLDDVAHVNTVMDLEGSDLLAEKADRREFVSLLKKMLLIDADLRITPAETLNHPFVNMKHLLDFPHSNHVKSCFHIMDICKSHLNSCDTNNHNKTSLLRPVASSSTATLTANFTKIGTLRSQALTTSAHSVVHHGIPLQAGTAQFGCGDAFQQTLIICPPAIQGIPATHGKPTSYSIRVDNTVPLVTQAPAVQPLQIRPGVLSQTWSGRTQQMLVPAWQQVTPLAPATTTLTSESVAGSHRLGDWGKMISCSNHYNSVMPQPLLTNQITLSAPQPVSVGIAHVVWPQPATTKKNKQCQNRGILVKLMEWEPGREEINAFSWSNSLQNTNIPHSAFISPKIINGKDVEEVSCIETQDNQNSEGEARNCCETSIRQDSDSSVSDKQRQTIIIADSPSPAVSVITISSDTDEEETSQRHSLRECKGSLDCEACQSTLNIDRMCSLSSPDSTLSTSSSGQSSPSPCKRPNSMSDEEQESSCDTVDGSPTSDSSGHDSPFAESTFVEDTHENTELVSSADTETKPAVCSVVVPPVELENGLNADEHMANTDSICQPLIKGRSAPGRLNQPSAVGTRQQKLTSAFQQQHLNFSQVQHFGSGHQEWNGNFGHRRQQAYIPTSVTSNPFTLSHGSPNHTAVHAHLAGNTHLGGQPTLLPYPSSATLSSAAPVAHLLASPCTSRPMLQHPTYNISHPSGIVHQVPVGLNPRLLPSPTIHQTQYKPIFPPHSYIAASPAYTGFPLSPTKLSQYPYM
Summary of the method: as §1

[3] = molecular target: T1, IRAK4 (Homo sapiens, UniProt Q9NWZ3); conditions: 100 μM compound, 20 μM ATP; read-out: Kinase activity, % of activity in the absence of inhibitor
T1 sequence (Q9NWZ3 1-460): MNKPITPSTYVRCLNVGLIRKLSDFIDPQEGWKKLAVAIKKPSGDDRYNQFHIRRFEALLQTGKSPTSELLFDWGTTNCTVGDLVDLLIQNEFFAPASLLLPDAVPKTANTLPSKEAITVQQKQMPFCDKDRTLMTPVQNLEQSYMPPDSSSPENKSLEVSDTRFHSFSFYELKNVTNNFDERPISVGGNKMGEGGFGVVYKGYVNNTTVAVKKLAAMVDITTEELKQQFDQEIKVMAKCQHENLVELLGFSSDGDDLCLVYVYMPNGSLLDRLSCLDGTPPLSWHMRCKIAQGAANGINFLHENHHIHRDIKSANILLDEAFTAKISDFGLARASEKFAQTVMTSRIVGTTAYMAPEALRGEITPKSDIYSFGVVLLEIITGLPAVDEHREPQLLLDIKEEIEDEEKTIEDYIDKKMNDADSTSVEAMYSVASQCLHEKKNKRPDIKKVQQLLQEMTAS
Summary of the method: as §1

[4] = molecular target: MKK1 (Homo sapiens, UniProt Q02750); conditions: 100 μM compound, 5 μM ATP; read-out: Kinase activity, % of activity in the absence of inhibitor
Chain of MKK1 (Q02750 whole entry): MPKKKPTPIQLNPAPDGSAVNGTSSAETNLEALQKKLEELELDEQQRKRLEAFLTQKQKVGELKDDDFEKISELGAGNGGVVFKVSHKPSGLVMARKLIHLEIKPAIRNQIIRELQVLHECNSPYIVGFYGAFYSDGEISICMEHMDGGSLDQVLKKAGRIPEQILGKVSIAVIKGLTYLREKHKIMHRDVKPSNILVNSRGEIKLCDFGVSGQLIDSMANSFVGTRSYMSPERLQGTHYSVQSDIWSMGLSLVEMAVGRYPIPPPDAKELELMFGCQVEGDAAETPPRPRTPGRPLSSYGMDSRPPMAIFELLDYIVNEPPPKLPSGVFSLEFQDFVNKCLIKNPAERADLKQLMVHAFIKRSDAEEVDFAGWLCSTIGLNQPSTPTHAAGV
Summary of the method: as §1

[5] = molecular target: T2, NUAK1 (Homo sapiens, UniProt O60285); conditions: 100 μM compound, 20 μM ATP; read-out: Kinase activity, % of activity in the absence of inhibitor
T2 sequence (O60285 1-661): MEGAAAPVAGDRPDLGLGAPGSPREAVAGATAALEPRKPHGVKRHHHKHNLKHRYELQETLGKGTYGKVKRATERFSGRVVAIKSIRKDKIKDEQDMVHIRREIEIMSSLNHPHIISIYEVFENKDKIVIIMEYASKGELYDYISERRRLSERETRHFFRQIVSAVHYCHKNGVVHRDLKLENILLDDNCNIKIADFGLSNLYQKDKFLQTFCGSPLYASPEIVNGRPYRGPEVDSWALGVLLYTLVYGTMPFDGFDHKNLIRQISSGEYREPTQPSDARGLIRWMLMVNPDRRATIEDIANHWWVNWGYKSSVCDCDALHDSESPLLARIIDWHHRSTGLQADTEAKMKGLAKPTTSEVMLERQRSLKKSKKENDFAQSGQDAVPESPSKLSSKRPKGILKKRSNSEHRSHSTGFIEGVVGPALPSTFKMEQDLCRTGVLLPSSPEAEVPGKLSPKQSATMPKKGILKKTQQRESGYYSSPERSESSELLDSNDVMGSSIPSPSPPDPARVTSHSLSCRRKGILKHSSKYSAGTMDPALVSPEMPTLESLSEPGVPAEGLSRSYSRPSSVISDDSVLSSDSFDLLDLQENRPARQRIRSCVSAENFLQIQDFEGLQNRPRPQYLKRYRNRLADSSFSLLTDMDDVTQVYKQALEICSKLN
Summary of the method: as §1

[6] = molecular target: PAK4 (Homo sapiens, UniProt O96013); conditions: 100 μM compound, 5 μM ATP; read-out: Kinase activity, % of activity in the absence of inhibitor
Chain of PAK4 (O96013 whole entry): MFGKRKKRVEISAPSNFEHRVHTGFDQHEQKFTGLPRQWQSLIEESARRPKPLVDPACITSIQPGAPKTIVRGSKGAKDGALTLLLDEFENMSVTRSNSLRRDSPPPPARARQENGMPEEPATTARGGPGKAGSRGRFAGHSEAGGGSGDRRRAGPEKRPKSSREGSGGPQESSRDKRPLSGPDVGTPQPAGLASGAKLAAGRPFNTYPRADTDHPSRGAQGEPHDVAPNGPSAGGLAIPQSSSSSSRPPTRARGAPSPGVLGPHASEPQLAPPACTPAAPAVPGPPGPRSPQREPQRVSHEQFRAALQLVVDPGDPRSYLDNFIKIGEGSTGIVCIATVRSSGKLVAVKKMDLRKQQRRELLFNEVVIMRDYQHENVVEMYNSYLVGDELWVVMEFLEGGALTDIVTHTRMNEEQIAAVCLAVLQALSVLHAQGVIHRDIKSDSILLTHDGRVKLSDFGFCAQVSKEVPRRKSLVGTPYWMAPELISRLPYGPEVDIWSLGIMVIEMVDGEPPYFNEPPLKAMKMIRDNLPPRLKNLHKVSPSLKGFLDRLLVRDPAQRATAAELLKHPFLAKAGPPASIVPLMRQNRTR
Summary of the method: as §1

[7] = molecular target: T3, SGK1 (Homo sapiens, UniProt O00141); conditions: 100 μM compound, 20 μM ATP; read-out: Kinase activity, % of activity in the absence of inhibitor
T3 sequence (O00141 1-431): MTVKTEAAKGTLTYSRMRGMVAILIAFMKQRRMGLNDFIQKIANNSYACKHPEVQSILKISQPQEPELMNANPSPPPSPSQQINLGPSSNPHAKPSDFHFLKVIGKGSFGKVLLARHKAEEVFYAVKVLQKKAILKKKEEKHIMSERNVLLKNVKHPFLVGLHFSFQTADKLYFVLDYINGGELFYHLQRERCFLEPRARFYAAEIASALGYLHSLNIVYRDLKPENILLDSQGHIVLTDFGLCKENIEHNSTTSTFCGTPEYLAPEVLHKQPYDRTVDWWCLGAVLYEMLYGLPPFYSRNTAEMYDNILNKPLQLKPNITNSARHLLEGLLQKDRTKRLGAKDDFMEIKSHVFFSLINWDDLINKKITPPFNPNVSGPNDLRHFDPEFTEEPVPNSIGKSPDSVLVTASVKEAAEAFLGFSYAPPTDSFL
Summary of the method: as §1

[8] = molecular target: p38β MAPK (Homo sapiens, UniProt Q15759); conditions: 100 μM compound, 20 μM ATP; read-out: Kinase activity, % of activity in the absence of inhibitor
Chain of p38β MAPK (Q15759 whole entry): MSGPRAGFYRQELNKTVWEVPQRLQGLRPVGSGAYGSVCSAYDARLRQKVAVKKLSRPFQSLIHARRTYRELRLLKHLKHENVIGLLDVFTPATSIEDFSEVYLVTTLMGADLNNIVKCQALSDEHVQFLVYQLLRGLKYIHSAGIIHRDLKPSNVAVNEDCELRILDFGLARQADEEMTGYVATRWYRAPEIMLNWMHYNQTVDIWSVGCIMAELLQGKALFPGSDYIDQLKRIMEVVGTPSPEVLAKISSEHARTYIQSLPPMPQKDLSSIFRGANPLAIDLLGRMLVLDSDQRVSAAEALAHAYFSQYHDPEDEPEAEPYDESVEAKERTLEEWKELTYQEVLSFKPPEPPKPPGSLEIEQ
Summary of the method: as §1

Chain of ABL (P00519 whole entry): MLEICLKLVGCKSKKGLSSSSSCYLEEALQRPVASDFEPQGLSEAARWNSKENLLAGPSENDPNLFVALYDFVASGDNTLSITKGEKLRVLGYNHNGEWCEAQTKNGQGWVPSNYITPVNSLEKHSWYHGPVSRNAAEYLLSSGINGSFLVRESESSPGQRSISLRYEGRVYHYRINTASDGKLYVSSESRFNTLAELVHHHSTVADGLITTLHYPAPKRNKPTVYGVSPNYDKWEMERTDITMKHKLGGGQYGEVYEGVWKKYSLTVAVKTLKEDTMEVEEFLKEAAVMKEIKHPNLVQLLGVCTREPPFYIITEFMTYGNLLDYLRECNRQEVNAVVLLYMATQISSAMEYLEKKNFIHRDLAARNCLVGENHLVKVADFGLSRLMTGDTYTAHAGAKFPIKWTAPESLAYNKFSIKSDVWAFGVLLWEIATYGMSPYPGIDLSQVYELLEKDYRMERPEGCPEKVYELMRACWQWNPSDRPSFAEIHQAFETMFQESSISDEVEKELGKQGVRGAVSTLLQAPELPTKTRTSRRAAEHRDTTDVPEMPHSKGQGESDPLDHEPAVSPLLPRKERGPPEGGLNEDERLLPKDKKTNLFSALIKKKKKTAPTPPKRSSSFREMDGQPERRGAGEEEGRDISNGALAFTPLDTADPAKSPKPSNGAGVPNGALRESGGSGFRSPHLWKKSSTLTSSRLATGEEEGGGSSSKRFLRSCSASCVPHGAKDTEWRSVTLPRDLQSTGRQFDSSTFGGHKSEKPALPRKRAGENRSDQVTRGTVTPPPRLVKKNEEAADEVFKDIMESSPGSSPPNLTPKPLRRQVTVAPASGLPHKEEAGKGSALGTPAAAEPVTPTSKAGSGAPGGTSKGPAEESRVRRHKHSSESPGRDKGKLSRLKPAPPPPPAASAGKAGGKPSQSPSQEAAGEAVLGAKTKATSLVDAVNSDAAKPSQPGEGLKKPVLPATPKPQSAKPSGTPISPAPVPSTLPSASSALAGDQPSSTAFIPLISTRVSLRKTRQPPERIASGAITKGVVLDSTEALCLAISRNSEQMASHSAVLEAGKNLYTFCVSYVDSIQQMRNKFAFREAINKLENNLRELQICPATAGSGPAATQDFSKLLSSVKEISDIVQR

SMILES	activity at 100 µM [1]	activity at 100 µM [2]	activity at 100 µM [3]	activity at 100 µM [4]	activity at 100 µM [5]	activity at 100 µM [6]	activity at 100 µM [7]	activity at 100 µM [8]
Nc1ncnc2c1ncn2C1OC(COP(=O)(O)OP(=O)(O)O)C(O)C1O (stereo not drawn) [ADP]	22.9%	34.2%	82.1%	16.4%	32.4%	73.8%	38.7%	51.1%
CC(C)(COP(=O)(O)OP(=O)(O)OCC1OC(n2cnc3c(N)ncnc32)C(O)C1O)C(O)C(=O)NCCC(=O)NCCS (stereo not drawn) [dpCoA, dephospho-CoA]	98%	91.5%	74.8%	52.3%	68.3%	75.9%	74.3%	94.5%
CC(C)(COP(=O)(O)OP(=O)(O)OC[C@H]1O[C@@H](n2cnc3c(N)ncnc32)[C@H](O)[C@@H]1OP(=O)(O)O)[C@@H](O)C(=O)NCCC(=O)NCCS [CoA, Coenzyme A]	111%	123%	89.1%	107%	98.3%	69.9%	103%	160%

Source: paper PMC6812009, “Covalent Aurora A regulation by the metabolic integrator coenzyme A” (Redox Biology, 2019)
